biological target: T1, β-catenin/BCL9 PPI (Homo sapiens, UniProt P35222); test: AlphaScreen competitive inhibition assay of the β-catenin/BCL9 PPI; assay type: binding; details: Table 3, inhibitors 27-43; read-out: Ki
T1 construct: Full-length β-catenin (residues 1-781) were cloned into a pET-28b vector; made in house; host or cells: E. coli BL21 DE3 (β-catenin); BCL9 peptide synthesized by InnoPep Inc
T1 sequence (P35222 1-781): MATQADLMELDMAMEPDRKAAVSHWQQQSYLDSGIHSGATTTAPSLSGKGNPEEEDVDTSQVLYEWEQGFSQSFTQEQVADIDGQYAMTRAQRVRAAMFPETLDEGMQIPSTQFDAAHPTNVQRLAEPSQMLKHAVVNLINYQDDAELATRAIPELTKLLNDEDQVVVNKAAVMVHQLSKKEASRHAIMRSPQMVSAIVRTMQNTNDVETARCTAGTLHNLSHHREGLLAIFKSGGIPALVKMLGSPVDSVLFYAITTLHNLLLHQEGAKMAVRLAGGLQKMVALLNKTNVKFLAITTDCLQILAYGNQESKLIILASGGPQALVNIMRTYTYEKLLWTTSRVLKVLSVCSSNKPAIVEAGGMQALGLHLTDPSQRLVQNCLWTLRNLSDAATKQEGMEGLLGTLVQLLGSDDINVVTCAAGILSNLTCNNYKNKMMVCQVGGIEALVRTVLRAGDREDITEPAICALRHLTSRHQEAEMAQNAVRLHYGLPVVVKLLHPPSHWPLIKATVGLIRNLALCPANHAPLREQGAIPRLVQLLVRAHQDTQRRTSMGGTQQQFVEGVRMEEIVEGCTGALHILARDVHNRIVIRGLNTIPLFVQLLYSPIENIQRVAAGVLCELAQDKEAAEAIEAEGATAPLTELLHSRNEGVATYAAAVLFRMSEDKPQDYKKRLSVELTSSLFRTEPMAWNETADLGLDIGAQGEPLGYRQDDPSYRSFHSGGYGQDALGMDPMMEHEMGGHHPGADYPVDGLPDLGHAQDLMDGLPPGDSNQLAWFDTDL
Method: AlphaScreen Assays of β-Catenin and BCL9 Interaction. Experiments were performed in white opaque 384-well plates from PerkinElmer (Waltham, Mass.), and the samples were read on a Synergy 2 plate reader (Biotek, Winooski, Vt.) with excitation at 680 nm and emission at 570 nm. The standard AlphaScreen protocol was used with a sensitivity setting of 200. All dilutions were made in 1× assay buffer containing 25 mM Hepes (pH 7.4), 100 mM NaCl, 0.01% Triton X-100 and 0.1% BSA to minimize nonspecific interactions.
For the β-catenin/BCL9 assay, 5 nM biotinylated BCL9 and 40 nM His6-tagged β-catenin were incubated in assay buffer at 4° C. for 30 min. For the β-catenin/E-cadherin assay, 10 nM biotinylated human E-cadherin, and 40 nM His6-tagged human β-catenin were added and incubated in assay buffer at 4° C. for 30 min. Different concentrations of the tested inhibitor were added and incubated in 20 μL assay buffer at 4° C. for another 1 h. All of the assay plates were covered and gently mixed on an orbital shaker. The donor and acceptor beads were then added to the plates to a final concentration of 10 μg/mL in […]. The mixture was incubated for 1 h at 4° C. before detection. The IC50 value was determined by nonlinear least-square analysis of GraphPad Prism 5.0. […] All of the experiments were performed in triplicate and carried out in the presence of 1% DMSO for small-molecule inhibitors. Each compound was assayed at least by two independent experiments. The results were expressed as mean±standard deviation. The inhibitor selectivity for β-catenin/BCL9 over β-catenin/E-canderin interactions was defined as the ratio of the respective Ki value of β-catenin/E-cadherin interactions over that of β-catenin/BCL9 interactions.

Compound | Ki [µM]
CC(C)(Oc1cccc(N2CCC[C@@H](C(=O)N(Cc3ccc(-c4c[nH]c5ccccc45)cc3)C3CC3)C2)c1)C(=O)N1CCNCC1 [Compound 42, (R)-4-(2-(3-(3-((4-(1H-indol-3-yl)benzyl)(cyclopropyl)carbamoyl)piperidin-1-yl)phenoxy)-2-methylpropanoyl)piperazin-1-ium] | < 5

same assay, conditions: Table 4, left half, inhibitors 44-48; read-out: Ki

Ki [µM] | Compound
< 30 | CN(Cc1ccc(-c2cn[nH]c2)cc1)C(=O)[C@@H]1CCCN(c2cccc(OC(C)(C)C(=O)N3CCNCC3)c2)C1 [Compound 45, (R)-4-(2-(3-(3-((4-(1H-pyrazol-4-yl)benzyl)(methyl)carbamoyl)piperidin-1-yl)phenoxy)-2-methylpropanoyl)piperazin-1-ium chloride]
< 10 | CC(C)N(Cc1ccc(-c2cn[nH]c2)cc1)C(=O)[C@@H]1CCCN(c2cccc(OC(C)(C)C(=O)N3CCNCC3)c2)C1 [Compound 47, (R)-4-(2-(3-(3-((4-(1H-pyrazol-4-yl)benzyl)(isopropyl)carbamoyl)piperidin-1-yl)phenoxy)-2-methylpropanoyl)piperazin-1-ium chloride]
< 90 | CC(C)(Oc1cccc(N2CCC[C@@H](C(=O)N(Cc3ccc(-c4cn[nH]c4)cc3)CC3CC3)C2)c1)C(=O)N1CCNCC1 [Compound 48, (R)-4-(2-(3-(3-((4-(1H-pyrazol-4-yl)benzyl)(cyclopropylmethyl)carbamoyl)piperidin-1-yl)phenoxy)-2-methylpropanoyl)piperazin-1-ium chloride]

same assay, conditions: Table 4, right half, inhibitors 49-53; read-out: Ki ± SD

Ki [µM] | Compound
< 30 | CC(C)(Oc1cccc(N2CCC[C@@H](C(=O)N(Cc3ccc(-c4cn[nH]c4)cc3)C3CCC3)C2)c1)C(=O)N1CCNCC1 [Compound 49, (R)-4-(2-(3-(3-((4-(1H-pyrazol-4-yl)benzyl)(cyclobutyl)carbamoyl)piperidin-1-yl)phenoxy)-2-methylpropanoyl)piperazin-1-ium chloride]
< 10 | CC(C)(Oc1cccc(N2CCC[C@@H](C(=O)N(Cc3ccc(-c4cn[nH]c4)cc3)C3CCCC3)C2)c1)C(=O)N1CCNCC1 [Compound 50, (R)-4-(2-(3-(3-((4-(1H-pyrazol-4-yl)benzyl)(cyclopentyl)carbamoyl)piperidin-1-yl)phenoxy)-2-methylpropanoyl)piperazin-1-ium chloride]
< 30 | CC(C)(Oc1cccc(N2CCC[C@@H](C(=O)N(Cc3ccc(-c4cn[nH]c4)cc3)C3CCCCC3)C2)c1)C(=O)N1CCNCC1 [Compound 51, (R)-4-(2-(3-(3-((4-(1H-pyrazol-4-yl)benzyl)(cyclohexyl)carbamoyl)piperidin-1-yl)phenoxy)-2-methylpropanoyl)piperazin-1-ium chloride]
< 5 | CCOCCN(Cc1ccc(-c2cn[nH]c2)cc1)C(=O)[C@@H]1CCCN(c2cccc(OC(C)(C)C(=O)N3CCNCC3)c2)C1.Cl [Compound 52, (R)-4-(2-(3-(3-((4-(1H-pyrazol-4-yl)benzyl)(2-ethoxyethyl)carbamoyl)piperidin-1-yl)phenoxy)-2-methylpropanoyl)piperazin-1-ium chloride]
< 90 | CC(C)(Oc1cccc(N2CCC[C@@H](C(=O)N(CCN)Cc3ccc(-c4cn[nH]c4)cc3)C2)c1)C(=O)N1CCNCC1 [Compound 53, (R)-4-(2-(3-(3-((4-(1H-pyrazol-4-yl)benzyl)(2-ammonioethyl)carbamoyl)piperidin-1-yl)phenoxy)-2-methylpropanoyl)piperazin-1-ium chloride]

same assay, conditions: Table 5, inhibitors 54-62; read-out: Ki

Ki [µM] | Compound
< 10 | CC(C)(Oc1cccc(N2CCC[C@@H](C(=O)N(Cc3ccc(-c4cn[nH]c4)cc3)C3CC3)C2)c1)C(=O)N1CCCNCC1 [Compound 54, (R)-4-(2-(3-(3-((4-(1H-pyrazol-4-yl)benzyl)(cyclopropyl)carbamoyl)piperidin-1-yl)phenoxy)-2-methylpropanoyl)-1,4-diazepan-1-ium chloride]
> 90 | CC(C)(Oc1cccc(N2CCC[C@@H](C(=O)N(Cc3ccc(-c4cn[nH]c4)cc3)C3CC3)C2)c1)C(=O)N1CCOCC1 [Compound 56, (R)-N-(4-(1H-pyrazol-4-yl)benzyl)-N-cyclopropyl-1-(3-((2-methyl-1-morpholino-1-oxopropan-2-yl)oxy)phenyl)piperidine-3-carboxamide]
> 90 | CC(C)(Oc1cccc(N2CCC[C@@H](C(=O)N(Cc3ccc(-c4cn[nH]c4)cc3)C3CC3)C2)c1)C(=O)N1CCCCC1 [Compound 57, (R)-N-(4-(1H-pyrazol-4-yl)benzyl)-N-cyclopropyl-1-(3-((2-methyl-1-oxo-1-(piperidin-1-yl)propan-2-yl)oxy)phenyl)piperidine-3-carboxamide]
< 30 | CC(C)(Oc1cccc(N2CCC[C@@H](C(=O)N(Cc3ccc(-c4cn[nH]c4)cc3)C3CC3)C2)c1)C(=O)N1C[C@H]2CNC[C@H]2C1 [Compound 58, (3aR,6aS)-5-(2-(3-((R)-3-((4-(1H-pyrazol-4-yl)benzyl)(cyclopropyl)carbamoyl)piperidin-1-yl)phenoxy)-2-methylpropanoyl)octahydropyrrolo[3,4-c]pyrrol-2-ium chloride]
< 5 | CC(C)(Oc1cccc(N2CCC[C@@H](C(=O)N(Cc3ccc(-c4cn[nH]c4)cc3)C3CC3)C2)c1)C(=O)N1CCC2(CCNC2)C1 (stereo partly drawn) [Compound 59, 7-(2-(3-((R)-3-((4-(1H-pyrazol-4-yl)benzyl)(cyclopropyl)carbamoyl)piperidin-1-yl)phenoxy)-2-methylpropanoyl)-2,7-diazaspiro[4.4]nonan-2-ium chloride]
< 30 | CC(C)(Oc1cccc(N2CCC[C@@H](C(=O)N(Cc3ccc(-c4cn[nH]c4)cc3)C3CC3)C2)c1)C(=O)N1CC2(CCNCC2)C1 [Compound 60, (R)-2-(2-(3-(3-((4-(1H-pyrazol-4-yl)benzyl)(cyclopropyl)carbamoyl)piperidin-1-yl)phenoxy)-2-methylpropanoyl)-2,7-diazaspiro[3.5]nonan-7-ium 2,2,2-trifluoroacetate]
< 30 | CC(C)(Oc1cccc(N2CCC[C@@H](C(=O)N(Cc3ccc(-c4cn[nH]c4)cc3)C3CC3)C2)c1)C(=O)N1CCC2(CNC2)C1 [Compound 61, (R)-6-(2-(3-(3-((4-(1H-pyrazol-4-yl)benzyl)(cyclopropyl)carbamoyl)piperidin-1-yl)phenoxy)-2-methylpropanoyl)-2,6-diazaspiro[3.4]octan-2-ium 2,2,2-trifluoroacetate]
< 90 | CC(C)(Oc1cccc(N2CCC[C@@H](C(=O)N(Cc3ccc(-c4cn[nH]c4)cc3)C3CC3)C2)c1)C(=O)N1CC2(CNC2)C1 [Compound 62, (R)-6-(2-(3-(3-((4-(1H-pyrazol-4-yl)benzyl)(cyclopropyl)carbamoyl)piperidin-1-yl)phenoxy)-2-methylpropanoyl)-2,6-diazaspiro[3.3]heptan-2-ium 2,2,2-trifluoroacetate]

same assay, conditions: Table 8, inhibitors 82-92; read-out: Ki

Ki [µM] | Compound
< 10 | O=C([C@@H]1CCCN(c2cccc(OC3(C(=O)N4CCNCC4)CC3)c2)C1)N(Cc1ccc(-c2cn[nH]c2)cc1)C1CC1 [Compound 82, (R)-4-(1-(3-(3-((4-(1H-pyrazol-4-yl)benzyl)(cyclopropyl)carbamoyl)piperidin-1-yl)phenoxy)cyclopropane-1-carbonyl)piperazin-1-ium chloride]
< 90 | O=C([C@@H]1CCCN(c2cccc(OC3(C(=O)N4CCNCC4)CCCC3)c2)C1)N(Cc1ccc(-c2cn[nH]c2)cc1)C1CC1 [Compound 83, (R)-4-(1-(3-(3-((4-(1H-pyrazol-4-yl)benzyl)(cyclopropyl)carbamoyl)piperidin-1-yl)phenoxy)cyclopentane-1-carbonyl)piperazin-1-ium chloride]

same assay, conditions: linear alkyl R1 substitutions; FIG. 4A

inhibitory activity (SAR, AlphaScreen) | Compound
maintained the inhibitory activities | CCOCCN(Cc1ccc(-c2cn[nH]c2)cc1)C(=O)[C@@H]1CCCN(c2cccc(OC(C)(C)C(=O)N3CCNCC3)c2)C1.Cl [Compound 52, (R)-4-(2-(3-(3-((4-(1H-pyrazol-4-yl)benzyl)(2-ethoxyethyl)carbamoyl)piperidin-1-yl)phenoxy)-2-methylpropanoyl)piperazin-1-ium chloride]

Source: patent US20220411372A1, “SMALL-MOLECULE INHIBITORS FOR THE B-CATENIN/B-CELL LYMPHOMA 9 PROTEIN-PROTEIN INTERACTION” (H. Lee Moffitt Cancer Center and Research Institute, Inc., priority 2019, published 2022)
